Assay [1] concerns the target Tyrosine-protein kinase ABL1 (Homo sapiens) (UniProt P00519). As to the kind of experiment: Residual activity of wild type ABL1 at 10 uM by microplate scintillation counting.
The target of assay [2] is T1, Serine/threonine-protein kinase TAO2 (Homo sapiens) (UniProt Q9UL54).
T1 sequence (whole entry): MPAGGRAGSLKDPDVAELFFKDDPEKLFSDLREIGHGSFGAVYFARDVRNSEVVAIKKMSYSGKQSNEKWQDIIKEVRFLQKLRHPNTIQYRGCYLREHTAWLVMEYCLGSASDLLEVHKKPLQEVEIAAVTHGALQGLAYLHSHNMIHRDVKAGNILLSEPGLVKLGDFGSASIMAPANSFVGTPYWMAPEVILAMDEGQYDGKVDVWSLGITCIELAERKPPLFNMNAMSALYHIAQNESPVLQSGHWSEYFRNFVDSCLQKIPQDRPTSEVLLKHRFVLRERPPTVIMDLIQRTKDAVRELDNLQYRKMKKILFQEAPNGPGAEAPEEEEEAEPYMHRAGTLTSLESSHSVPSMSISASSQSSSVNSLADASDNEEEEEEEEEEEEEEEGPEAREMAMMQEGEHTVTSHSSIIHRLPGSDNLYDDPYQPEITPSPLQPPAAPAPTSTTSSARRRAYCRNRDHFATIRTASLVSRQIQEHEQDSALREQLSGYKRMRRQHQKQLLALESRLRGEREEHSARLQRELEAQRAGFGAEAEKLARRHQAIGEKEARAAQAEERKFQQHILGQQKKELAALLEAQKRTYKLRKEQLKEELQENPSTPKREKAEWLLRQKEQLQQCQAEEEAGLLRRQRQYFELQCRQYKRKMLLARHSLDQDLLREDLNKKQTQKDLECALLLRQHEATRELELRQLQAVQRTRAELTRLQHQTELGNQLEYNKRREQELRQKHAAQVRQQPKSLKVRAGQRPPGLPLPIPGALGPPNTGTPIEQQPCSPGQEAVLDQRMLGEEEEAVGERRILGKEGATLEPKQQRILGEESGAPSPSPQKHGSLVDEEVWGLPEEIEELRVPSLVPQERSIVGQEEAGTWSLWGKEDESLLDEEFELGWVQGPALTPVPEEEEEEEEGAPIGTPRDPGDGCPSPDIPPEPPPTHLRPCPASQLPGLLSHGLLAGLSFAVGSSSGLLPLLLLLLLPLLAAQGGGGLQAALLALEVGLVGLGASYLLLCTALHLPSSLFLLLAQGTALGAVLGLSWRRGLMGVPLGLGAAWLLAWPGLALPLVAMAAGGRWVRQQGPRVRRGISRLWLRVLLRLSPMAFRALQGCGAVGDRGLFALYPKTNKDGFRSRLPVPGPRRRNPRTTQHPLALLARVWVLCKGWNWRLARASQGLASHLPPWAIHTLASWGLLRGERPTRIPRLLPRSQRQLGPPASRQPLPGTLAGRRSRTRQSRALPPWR
As to the kind of experiment: Residual activity of TAOK2 at 10 uM by microplate scintillation counting.

Assay [3] deals with Tyrosine-protein kinase Lck (Homo sapiens) (UniProt P06239). As to the kind of experiment: Residual activity of LCK at 10 uM by microplate scintillation counting.
Assay [4] has as its target Protein kinase C alpha type (Homo sapiens) (UniProt P17252). The experiment in a line: Residual activity of PKCalpha at 1 uM by microplate scintillation counting.
For assay [5], the target named is T2, Serine/threonine-protein kinase Sgk3 (Homo sapiens) (UniProt Q96BR1).
T2 sequence (whole entry): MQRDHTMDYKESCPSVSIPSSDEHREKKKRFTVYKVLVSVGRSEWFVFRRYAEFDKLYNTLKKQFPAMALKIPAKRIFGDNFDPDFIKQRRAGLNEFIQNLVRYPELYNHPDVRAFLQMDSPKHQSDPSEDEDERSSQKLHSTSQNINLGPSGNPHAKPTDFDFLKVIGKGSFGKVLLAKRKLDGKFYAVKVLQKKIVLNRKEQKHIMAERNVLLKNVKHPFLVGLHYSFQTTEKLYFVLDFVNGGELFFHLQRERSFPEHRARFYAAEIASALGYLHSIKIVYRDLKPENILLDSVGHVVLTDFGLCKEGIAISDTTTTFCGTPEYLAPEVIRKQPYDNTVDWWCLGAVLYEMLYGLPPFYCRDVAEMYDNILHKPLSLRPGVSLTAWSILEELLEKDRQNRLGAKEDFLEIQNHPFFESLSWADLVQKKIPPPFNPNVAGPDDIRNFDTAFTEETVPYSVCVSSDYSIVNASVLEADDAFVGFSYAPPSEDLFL
The experiment in a line: Residual activity of SGK3 at 0.1 uM by microplate scintillation counting.

For a further assay, the target named is Angiopoietin-1 receptor (Homo sapiens, UniProt Q02763). As to the kind of experiment: Residual activity of TIE2 at 0.1 uM by microplate scintillation counting.
For assay [6], the target named is Tyrosine-protein kinase Lck (Homo sapiens) (UniProt P06239). As to the kind of experiment: Residual activity of LCK at 0.1 uM by microplate scintillation counting.
Assay [7] addresses 3-phosphoinositide-dependent protein kinase 1 (Homo sapiens) (UniProt O15530). The experiment in a line: Residual activity of PDK1 at 0.1 uM by microplate scintillation counting.
The target of assay [8] is Calcium/calmodulin-dependent protein kinase type II subunit delta (Homo sapiens) (UniProt Q13557). As to the kind of experiment: Residual activity of CAMK2D at 10 uM by microplate scintillation counting.
Chain of Calcium/calmodulin-dependent protein kinase type II subunit delta (Homo sapiens) (Q13557 whole entry): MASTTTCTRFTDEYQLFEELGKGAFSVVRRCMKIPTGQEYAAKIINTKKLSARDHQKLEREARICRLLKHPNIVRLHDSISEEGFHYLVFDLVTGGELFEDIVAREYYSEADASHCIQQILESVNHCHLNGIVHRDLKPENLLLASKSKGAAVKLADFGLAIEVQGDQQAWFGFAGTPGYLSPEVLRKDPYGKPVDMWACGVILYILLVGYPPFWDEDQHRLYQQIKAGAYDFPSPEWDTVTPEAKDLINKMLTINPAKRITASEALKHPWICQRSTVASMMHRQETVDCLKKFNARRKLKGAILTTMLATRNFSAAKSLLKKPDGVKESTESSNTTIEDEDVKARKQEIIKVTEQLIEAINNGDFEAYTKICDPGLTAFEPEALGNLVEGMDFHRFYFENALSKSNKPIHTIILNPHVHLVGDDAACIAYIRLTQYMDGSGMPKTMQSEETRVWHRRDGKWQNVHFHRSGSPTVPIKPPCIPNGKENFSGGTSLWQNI
For assay [9], the target named is MAP kinase-activated protein kinase 3 (Homo sapiens) (UniProt Q16644). The experiment in a line: Residual activity of MAPKAPK3 at 1 uM by microplate scintillation counting.
Chain of MAP kinase-activated protein kinase 3 (Homo sapiens) (Q16644 whole entry, looked up): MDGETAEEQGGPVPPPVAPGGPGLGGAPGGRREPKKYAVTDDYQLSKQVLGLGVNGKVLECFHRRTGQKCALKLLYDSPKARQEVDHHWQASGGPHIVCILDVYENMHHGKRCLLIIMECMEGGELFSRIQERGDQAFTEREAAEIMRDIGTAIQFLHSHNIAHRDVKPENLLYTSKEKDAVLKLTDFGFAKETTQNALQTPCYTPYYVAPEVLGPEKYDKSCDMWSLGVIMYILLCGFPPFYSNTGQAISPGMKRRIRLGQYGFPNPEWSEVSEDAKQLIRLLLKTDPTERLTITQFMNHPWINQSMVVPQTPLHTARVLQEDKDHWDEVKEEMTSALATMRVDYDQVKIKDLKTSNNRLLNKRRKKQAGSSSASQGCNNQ
Assay [10] addresses Cyclin-dependent kinase 2/cyclin E1 (Homo sapiens) (UniProt P24864+P24941). As to the kind of experiment: Residual activity of CDK2/Cyclin E at 0.1uM by microplate scintillation counting. In kind it is protein-complex assay.
Assay [11] deals with 5'-AMP-activated protein kinase catalytic subunit alpha-1 (Homo sapiens) (UniProt Q13131). The experiment in a line: Residual activity of AMPK-alpha1 fl at 0.1 uM by microplate scintillation counting.
Chain of 5'-AMP-activated protein kinase catalytic subunit alpha-1 (Homo sapiens) (Q13131 whole entry, looked up): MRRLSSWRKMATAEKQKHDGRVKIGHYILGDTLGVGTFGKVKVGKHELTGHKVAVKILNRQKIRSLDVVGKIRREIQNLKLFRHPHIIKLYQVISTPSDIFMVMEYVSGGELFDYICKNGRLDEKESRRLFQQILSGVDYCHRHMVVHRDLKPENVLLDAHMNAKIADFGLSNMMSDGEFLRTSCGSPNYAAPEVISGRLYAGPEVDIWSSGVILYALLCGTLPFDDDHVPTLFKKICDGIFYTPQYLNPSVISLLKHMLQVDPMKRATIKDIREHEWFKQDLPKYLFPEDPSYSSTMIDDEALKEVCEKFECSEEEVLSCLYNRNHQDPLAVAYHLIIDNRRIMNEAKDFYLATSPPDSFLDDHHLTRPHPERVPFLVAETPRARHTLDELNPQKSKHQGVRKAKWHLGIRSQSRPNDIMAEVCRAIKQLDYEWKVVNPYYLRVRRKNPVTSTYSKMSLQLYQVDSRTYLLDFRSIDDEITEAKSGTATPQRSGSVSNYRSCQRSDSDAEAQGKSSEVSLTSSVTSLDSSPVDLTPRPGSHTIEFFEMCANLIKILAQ
Assay [12] deals with Serine/threonine-protein kinase MARK1 (Homo sapiens) (UniProt Q9P0L2). As to the kind of experiment: Residual activity of MARK1 at 10 uM by microplate scintillation counting.
Chain of Serine/threonine-protein kinase MARK1 (Homo sapiens) (Q9P0L2 whole entry, looked up): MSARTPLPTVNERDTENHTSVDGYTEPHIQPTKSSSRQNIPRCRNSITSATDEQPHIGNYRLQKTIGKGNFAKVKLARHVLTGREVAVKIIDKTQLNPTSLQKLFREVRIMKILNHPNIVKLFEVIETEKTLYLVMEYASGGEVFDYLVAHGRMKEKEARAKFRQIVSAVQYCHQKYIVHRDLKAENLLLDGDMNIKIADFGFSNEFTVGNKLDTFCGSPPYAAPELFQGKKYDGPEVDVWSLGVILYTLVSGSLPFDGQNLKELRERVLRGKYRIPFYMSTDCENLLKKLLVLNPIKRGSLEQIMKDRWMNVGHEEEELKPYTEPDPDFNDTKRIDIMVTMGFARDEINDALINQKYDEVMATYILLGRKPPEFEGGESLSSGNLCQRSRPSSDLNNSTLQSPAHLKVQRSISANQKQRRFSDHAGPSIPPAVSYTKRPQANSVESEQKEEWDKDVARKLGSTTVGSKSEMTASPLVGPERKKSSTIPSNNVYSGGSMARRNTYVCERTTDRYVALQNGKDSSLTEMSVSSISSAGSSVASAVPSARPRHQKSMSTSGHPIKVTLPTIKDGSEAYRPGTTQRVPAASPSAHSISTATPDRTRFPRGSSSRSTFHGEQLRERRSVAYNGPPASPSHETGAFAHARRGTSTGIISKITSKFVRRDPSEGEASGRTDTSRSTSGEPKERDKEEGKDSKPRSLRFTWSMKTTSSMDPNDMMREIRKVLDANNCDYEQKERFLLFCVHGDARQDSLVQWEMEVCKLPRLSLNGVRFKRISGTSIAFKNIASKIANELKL

Each structure is given as a SMILES string.

Chain of Tyrosine-protein kinase ABL1 (Homo sapiens) (P00519 whole entry): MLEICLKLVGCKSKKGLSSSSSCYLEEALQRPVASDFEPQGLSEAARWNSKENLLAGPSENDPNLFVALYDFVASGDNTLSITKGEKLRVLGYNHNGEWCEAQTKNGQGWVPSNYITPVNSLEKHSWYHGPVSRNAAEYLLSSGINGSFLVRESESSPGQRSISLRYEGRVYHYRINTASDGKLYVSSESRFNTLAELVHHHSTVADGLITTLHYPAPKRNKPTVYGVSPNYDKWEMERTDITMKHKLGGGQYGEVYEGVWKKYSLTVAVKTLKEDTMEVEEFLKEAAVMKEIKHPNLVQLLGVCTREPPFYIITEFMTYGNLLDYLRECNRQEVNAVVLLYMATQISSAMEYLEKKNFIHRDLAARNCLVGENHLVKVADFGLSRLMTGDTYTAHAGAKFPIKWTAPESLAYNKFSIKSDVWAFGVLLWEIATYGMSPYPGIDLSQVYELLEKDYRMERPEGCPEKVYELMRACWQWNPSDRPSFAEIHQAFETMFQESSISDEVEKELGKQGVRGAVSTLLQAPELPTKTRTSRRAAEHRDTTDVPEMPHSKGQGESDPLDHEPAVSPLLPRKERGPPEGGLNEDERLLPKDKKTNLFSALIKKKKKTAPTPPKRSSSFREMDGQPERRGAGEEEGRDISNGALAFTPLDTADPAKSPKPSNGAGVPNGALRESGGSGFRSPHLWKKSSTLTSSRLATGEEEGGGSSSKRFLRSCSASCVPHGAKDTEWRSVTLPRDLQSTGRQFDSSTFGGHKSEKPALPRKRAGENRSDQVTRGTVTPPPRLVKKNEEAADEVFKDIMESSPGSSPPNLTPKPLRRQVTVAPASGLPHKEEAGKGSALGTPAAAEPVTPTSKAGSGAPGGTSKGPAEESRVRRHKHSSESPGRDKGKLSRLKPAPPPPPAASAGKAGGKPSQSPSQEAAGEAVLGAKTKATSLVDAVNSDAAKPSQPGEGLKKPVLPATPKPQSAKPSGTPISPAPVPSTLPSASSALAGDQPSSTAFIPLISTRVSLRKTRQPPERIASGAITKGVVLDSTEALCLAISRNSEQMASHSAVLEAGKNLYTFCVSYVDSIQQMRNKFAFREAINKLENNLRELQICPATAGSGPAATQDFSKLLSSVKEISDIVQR
Chain of 3-phosphoinositide-dependent protein kinase 1 (Homo sapiens) (O15530 whole entry, looked up): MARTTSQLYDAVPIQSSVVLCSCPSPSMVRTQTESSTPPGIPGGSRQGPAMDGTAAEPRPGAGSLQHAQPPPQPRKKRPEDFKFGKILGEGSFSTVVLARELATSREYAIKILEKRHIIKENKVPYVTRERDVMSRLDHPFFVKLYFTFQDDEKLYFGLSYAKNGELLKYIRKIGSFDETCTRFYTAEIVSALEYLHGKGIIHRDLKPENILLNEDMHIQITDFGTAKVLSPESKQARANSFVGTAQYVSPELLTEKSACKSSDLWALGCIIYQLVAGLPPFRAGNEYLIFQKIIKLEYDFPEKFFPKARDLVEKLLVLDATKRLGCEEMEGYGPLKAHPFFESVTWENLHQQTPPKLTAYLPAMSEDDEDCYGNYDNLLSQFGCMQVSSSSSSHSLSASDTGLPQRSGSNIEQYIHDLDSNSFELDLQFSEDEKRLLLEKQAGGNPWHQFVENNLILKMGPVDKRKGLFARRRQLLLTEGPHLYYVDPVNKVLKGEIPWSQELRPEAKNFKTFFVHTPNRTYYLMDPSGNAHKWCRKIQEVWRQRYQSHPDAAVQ

As to `COc1cc2c(Oc3ccc(-c4nc5ccccc5s4)cc3)ncnc2cc1OCCCN1CCN(C)CC1`, the residual activity in [1] came to 28%; in assay [2], 141%; in assay [3] it was 4%; in assay [4] it was 99%; in [5], 91%; on Angiopoietin-1 receptor, 38%. Further, the residual activity in assay [6] is 92%; in assay [7] it was 95%; in [8], 28%; in assay [9], 85%; in assay [10], 86%; in [11], 94%. Further, the residual activity in assay [12] was found to be 124%.

Turning to `COc1cc2c(Oc3ccc(-c4nc5ccccc5s4)cc3)ncnc2cc1OCCCN1CCCC1`, the residual activity in [1] worked out at 41%; in assay [2] it was 122%; in [3], 6%; in [4], 128%; in assay [5], 114%; at Angiopoietin-1 receptor, 50%. The residual activity in [6] came to 104%; in assay [7], 95%; in assay [8] it was 13%; in [9], 94%; in [10], 93%; in assay [11] it was 101%. Moreover, the residual activity in [12] turned out to be 112%.

Take `COc1cc2c(Oc3ccc(-c4nc5ccccc5s4)cc3F)ncnc2cc1OCCCN1CCN(C)CC1`: the residual activity in assay [1] amounted to 26%; in assay [2], 129%; in assay [3], 2%; in assay [4] it was 98%; in assay [5], 104%; at Angiopoietin-1 receptor, 53%. Besides, the residual activity in assay [6] turned out to be 86%; in [7], 97%; in assay [8], 44%; in assay [9], 98%; in [10], 92%; in [11] it was 86%. Further, in [12], the residual activity came out at 112%.
